Test systems include NCI-H522; SNB-19; M14; SK-MEL-5; HCT-15; UACC-257; KM12; NCI-H226; T47D; OVCAR-4; IGROV-1; HCT-116; PC-3; OVCAR-5; Malme-3M; NCI-H23; 786-0; RPMI-8226; DU-145; A498.
Holding throughout (experiment): growth of human tumour cells (NCI), 48 h

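Where inhibition never reached the appropriate level, the endpoint shown equals the highest concentration tested. Otherwise, values were interpolated linearly from a five-concentration, 48-hour dose response in 96-well plates. The concentration for 50% growth inhibition is given as GI50.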 Calls of active or inactive are those of the source. Rule as the data show it: active = GI50 up to about 1.1 µM and inactive = higher. Where a SMILES comes first, the peptide text is derived from it. The star is where a group is joined. Boc = CC(C)(C)OC(=O)*; tBu = CC(C)(C)*

With `O=c1c(S(=O)(=O)Oc2ccccc2)coc2cc(F)ccc12`, the GI50 with NCI-H522 was > 100 µM (inactive); with SNB-19, > 100 µM (inactive); in the experiment with M14, > 100 µM (inactive); with SK-MEL-5 it was > 100 µM (inactive); in the experiment on HCT-15, more than 100 µM; in the experiment on UACC-257, > 100 µM (inactive). The GI50 in the experiment on KM12 is > 100 µM (inactive); with NCI-H226, 17.4 µM (inactive); in the experiment on T47D it was 55 µM (inactive); in the experiment with OVCAR-4 it was > 100 µM (inactive); in the experiment on IGROV-1, > 100 µM (inactive); in the experiment with HCT-116 it was > 100 µM (inactive). The GI50 in the experiment with PC-3 is > 100 µM (inactive); with OVCAR-5, > 100 µM (inactive); in the experiment on Malme-3M it was > 100 µM (inactive); with NCI-H23, 82.2 µM (inactive); in the experiment on 786-0, > 100 µM (inactive).
Take `CCOC(=O)C(NC(=O)c1ccccc1)(Nc1ccc(S(=O)(=O)Nc2ncccn2)cc1)C(F)(F)F` (stereo unspecified): the GI50 was > 100 µM (inactive) in the experiment with SNB-19; > 100 µM (inactive) in the experiment on M14; > 100 µM (inactive) in the experiment with SK-MEL-5; more than 100 µM in the experiment with HCT-15; > 100 µM (inactive) in the experiment with UACC-257; > 100 µM (inactive) with KM12. For the same compound, the GI50 in the experiment on NCI-H226, with T47D, in the experiment on OVCAR-4, in the experiment on IGROV-1, in the experiment on HCT-116 and in the experiment on PC-3 was > 100 µM (inactive) in each case. Also, the GI50 with OVCAR-5, in the experiment with Malme-3M, with RPMI-8226, in the experiment with DU-145, with NCI-H23 and in the experiment on 786-0 was > 100 µM (inactive) throughout.
For `COc1ccccc1Nc1nc2c([nH]1)c(=O)n(C)c(=O)n2C`, the GI50 in the experiment with M14 was > 10 µM (inactive); in the experiment with SK-MEL-5 it was > 10 µM (inactive); in the experiment on HCT-15, more than 10 µM; with UACC-257, > 10 µM (inactive); in the experiment on KM12, > 10 µM (inactive); with T47D, > 10 µM (inactive). Further, the GI50 with OVCAR-4, in the experiment with IGROV-1, with PC-3, with Malme-3M, with RPMI-8226 and with DU-145 was > 10 µM (inactive) in each case. Moreover, the GI50 in the experiment with NCI-H23 and in the experiment with 786-0 was > 10 µM (inactive) each time.
For the compound `Cc1ccc(C(=O)C#Cc2cn(C3CC(O)C(CO)O3)c(=O)[nH]c2=O)cc1` (stereo unspecified), the GI50 is 11.5 µM (inactive) with NCI-H522; > 100 µM (inactive) with SNB-19; 53.1 µM (inactive) with M14; > 100 µM (inactive) in the experiment with SK-MEL-5; more than 100 µM with HCT-15; > 100 µM (inactive) with UACC-257. The GI50 is > 100 µM (inactive) with KM12; > 100 µM (inactive) with NCI-H226; 23.6 µM (inactive) with T47D; 95.9 µM (inactive) with OVCAR-4; > 100 µM (inactive) in the experiment on IGROV-1; 62.2 µM (inactive) in the experiment on HCT-116. Moreover, the GI50 is > 100 µM (inactive) with PC-3; 15.4 µM (inactive) in the experiment on Malme-3M; 67.8 µM (inactive) in the experiment on RPMI-8226; > 100 µM (inactive) in the experiment with DU-145; > 100 µM (inactive) with NCI-H23; > 100 µM (inactive) with 786-0.
For `COc1cc(OC)c(OC)cc1/C=C/c1ccc2ccccc2n1`, the GI50 in the experiment on NCI-H522 is 5.41 µM (inactive); in the experiment with M14, > 10 µM (inactive); in the experiment with SK-MEL-5, 8.77 µM (inactive); in the experiment on HCT-15 it was 7.62 µM; in the experiment with UACC-257, > 10 µM (inactive); with KM12, 7.85 µM (inactive). For the same compound, the GI50 is 6.97 µM (inactive) in the experiment on T47D; > 10 µM (inactive) in the experiment on OVCAR-4; > 10 µM (inactive) in the experiment with IGROV-1; 3.72 µM (inactive) with HCT-116; 6.08 µM (inactive) with PC-3; > 10 µM (inactive) with OVCAR-5. In addition, the GI50 in the experiment on Malme-3M was > 10 µM (inactive); in the experiment with RPMI-8226 it was 3.66 µM (inactive); with DU-145, > 10 µM (inactive); with NCI-H23 it was 2.89 µM (inactive); with 786-0, > 10 µM (inactive).
For `CCOC(=O)c1c(SC(=O)C(C)(C)Oc2ccc(Cl)cc2)n(-c2ccccc2)c(=S)n(-c2ccccc2)c1=O`, the GI50 is 39.8 µM (inactive) with NCI-H522; 31.6 µM (inactive) with SNB-19; 30.3 µM (inactive) in the experiment with M14; 60.4 µM with HCT-15; > 100 µM (inactive) in the experiment with UACC-257; 24.8 µM (inactive) with KM12. Besides, the GI50 in the experiment on NCI-H226 was 40 µM (inactive); in the experiment on T47D, 84.5 µM (inactive); in the experiment with OVCAR-4, 34.4 µM (inactive); in the experiment on IGROV-1 it was 20.1 µM (inactive); in the experiment with HCT-116, 22.4 µM (inactive); with OVCAR-5, 67 µM (inactive). The GI50 in the experiment on Malme-3M is 23 µM (inactive); in the experiment with DU-145, 45.2 µM (inactive); in the experiment with NCI-H23, 61.7 µM (inactive); in the experiment on A498, 52.7 µM (inactive); with 786-0 it was 27.6 µM (inactive).
For `CN(/N=C/c1ccccn1)C1=NCCN1`, the GI50 with NCI-H522 was > 100 µM (inactive); with SNB-19, > 100 µM (inactive); in the experiment with M14 it was > 100 µM (inactive); in the experiment on SK-MEL-5, > 100 µM (inactive); in the experiment on HCT-15 it was more than 100 µM; with UACC-257, > 100 µM (inactive). For the same compound, the GI50 in the experiment with KM12, with NCI-H226, with T47D, in the experiment on OVCAR-4, with IGROV-1 and with HCT-116 was > 100 µM (inactive) throughout. Also, the GI50 in the experiment with PC-3, with OVCAR-5, in the experiment on Malme-3M, with RPMI-8226, in the experiment with NCI-H23 and in the experiment with A498 was > 100 µM (inactive) in each case. The GI50 in the experiment on 786-0 was > 100 µM (inactive).
`CN(C)CCNc1nc2c(c(=O)n(C)c(=O)n2C)n1C`: the GI50 was > 100 µM (inactive) with NCI-H522; > 100 µM (inactive) in the experiment with SNB-19; > 100 µM (inactive) with M14; > 100 µM (inactive) in the experiment with SK-MEL-5; more than 100 µM with HCT-15; > 100 µM (inactive) with UACC-257. Moreover, the GI50 with KM12, in the experiment with NCI-H226, in the experiment with T47D, in the experiment on OVCAR-4, with IGROV-1 and in the experiment with HCT-116 was > 100 µM (inactive) in each case. Further, the GI50 with OVCAR-5, in the experiment on Malme-3M, in the experiment on RPMI-8226, in the experiment with DU-145, in the experiment on NCI-H23 and in the experiment on A498 was > 100 µM (inactive) in each case. For the same compound, the GI50 in the experiment with 786-0 is > 100 µM (inactive).
`CN1CCN(C(=S)N(C)C(=O)c2ccco2)CC1`: the GI50 in the experiment on NCI-H522 was > 100 µM (inactive); in the experiment on SNB-19 it was > 100 µM (inactive); in the experiment with M14, > 100 µM (inactive); with SK-MEL-5, > 100 µM (inactive); in the experiment with HCT-15, more than 100 µM; in the experiment with UACC-257, > 100 µM (inactive). The GI50 with KM12, with NCI-H226, with T47D, in the experiment on OVCAR-4, in the experiment with IGROV-1 and in the experiment on OVCAR-5 was > 100 µM (inactive) each time. Further, the GI50 in the experiment with Malme-3M, in the experiment with RPMI-8226, in the experiment with DU-145, in the experiment on NCI-H23 and in the experiment with 786-0 was > 100 µM (inactive) throughout.
In the case of `CCNCCNc1c2ccccc2nc2ccccc12`, the GI50 in the experiment with NCI-H522 was 1.04 µM (active); in the experiment on SNB-19, 1.01 µM (active); in the experiment with M14, 1.39 µM (inactive); in the experiment on SK-MEL-5, 1.66 µM (inactive); with HCT-15, 1.48 µM; in the experiment on UACC-257 it was 1.66 µM (inactive). The GI50 in the experiment with KM12 was 1.58 µM (inactive); in the experiment with T47D, 2.38 µM (inactive); in the experiment on OVCAR-4 it was 1.14 µM (inactive); in the experiment with IGROV-1, 1.88 µM (inactive); in the experiment with HCT-116 it was 0.515 µM (active); in the experiment with PC-3 it was 0.828 µM (active). Further, the GI50 is 1.13 µM (inactive) in the experiment with OVCAR-5; 1.7 µM (inactive) with Malme-3M; 1.62 µM (inactive) in the experiment on DU-145; 1.26 µM (inactive) in the experiment on NCI-H23; 0.791 µM (active) in the experiment with 786-0.
In the case of `CC(OC(C)(C)C)C(NC(=O)C(N)CCCCNC(=O)OC(C)(C)C)C(=O)NC(Cc1ccccc1)C(=O)O` (stereo unspecified) (H-Lys(Boc)-Thr(tBu)-Phe-OH; configuration not given here), the GI50 with SNB-19 was > 100 µM (inactive); in the experiment on M14 it was > 100 µM (inactive); in the experiment on SK-MEL-5, > 100 µM (inactive); with HCT-15 it was more than 100 µM; in the experiment on UACC-257, > 100 µM (inactive); with KM12, > 100 µM (inactive). Also, the GI50 in the experiment on NCI-H226, with T47D, in the experiment with OVCAR-4, in the experiment on IGROV-1, with HCT-116 and in the experiment with PC-3 was > 100 µM (inactive) in each case. The GI50 in the experiment on OVCAR-5, with Malme-3M, in the experiment on RPMI-8226, with DU-145, in the experiment on NCI-H23 and with 786-0 was > 100 µM (inactive) throughout.

The values above are taken from ChEMBL document CHEMBL1201862, “PubChem BioAssay data set” (2004).
